The values that follow come from US20230101747A1 (Schrödinger, Inc., priority 2019, published 2023).

Test [1] concerns the target T1, Full length human CDC7 protein co-expressed with DBF4 (Homo sapiens, UniProt O00311).
T1 construct: Full length human CDC7 protein co-expressed with DBF4; purchased SignalChem (China)
The experiment in a line: CDC7 kinase biochemical assay (ADP-Glo, PDKtide substrate). Particulars: 0.1 nM CDC7/DBF4, 1 uM ATP, 10 uM PDKtide, 4 h; read-out: CDC7 ADP-Glo PDKtide IC50. The procedure, abridged: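 ADP-Glo luminescence measured ADP made over a 4 h reaction of 0.1 nM CDC7/DBF4 (full-length human) with 10 uM PDKtide and 1 uM ATP. Buffer was 40 mM Tris pH 7.5 with 20 mM MgCl2, 0.1 mg/ml BSA, 50 uM DTT. Inhibition normalized to DMSO and positive-control inhibitor wells.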
A general note: ADP-Glo turns the ADP formed in a reaction into a luminescent signal.

Test [2] relates to phosphorylation of MCM2 S53 (CDC7 substrate) in colo205 cells. Nature of the test: Phosphorylated MCM2 MSD electrochemiluminescence assay. The test is classed as cell-based. Particulars: Homo sapiens, COLO 205; colo205 cells, 20 h incubation; read-out: pMCM2-S53 MSD Colo205 IC50. The procedure: Phosphorylated MCM2 MSD Electrochemiluminescence Assay
The effect of CDC7 inhibitors on cellular phosphorylation of the CDC7 substrate MCM2 was determined using the following protocol:
A total of 40,000 colo205 cells in 100 uL culture medium (1640 medium+10% Fetal bovine serum+1% Penicillin-Streptomycin) were plated in 96-well cell culture plates and allowed to attach for 6 hours. 3-fold serial dilutions of test compounds were prepared in completed PBS at 25× final concentration and 4 uL of each were added to the cells and incubated for 20 hours at 37° C., 5% CO2. Each concentration was tested in duplicate. After the 20 h incubation, cells were washed with 150 uL PBS and lysed with 40 uL MSD lysis buffer (obtained from Meso Scale Diagnostics) supplied with 1× complete ULTRA cocktail inhibitor (obtained from Roche). To detect phosphorylation of MCM2 S53, 30 μL of capture antibody solution (obtained from Abnova, catalog number H00004171-M01, 1:500) was added to each well of MULTI-ARRAY 96-well High Bind Plate, and incubated overnight. The antibody solution was removed, wells blocked with BSA solution and plates washed, followed by addition of 30 ul of cell lysate per well. After 2 h incubation, plates were washed. 30 μL of 1× detection antibody solution (obtained from Abcam, catalog number ab109133, 1:1000) was then added to each well and incubate for 1 hour. Plates were washed and 30 μL of 1× secondary antibody solution (obtained from MSD, catalog number R32AB-1, 1:5000) was added to each well and incubate for 1 hour. Plates were washed and 150 μL of 1× Read Buffer T was added to each well of the MSD plate. The electrochemiluminescence signal was measured on a MESO SECTOR S600 plate reader. The percentage of remaining phosphorylated MCM2 signal was calculated following the equation below.
HC (high control): Cells treated with DMSO Cpds: Cells treated with test compounds LC (low control): Cells treated with positive control CDC7 inhibitor

T1 sequence (O00311 whole entry): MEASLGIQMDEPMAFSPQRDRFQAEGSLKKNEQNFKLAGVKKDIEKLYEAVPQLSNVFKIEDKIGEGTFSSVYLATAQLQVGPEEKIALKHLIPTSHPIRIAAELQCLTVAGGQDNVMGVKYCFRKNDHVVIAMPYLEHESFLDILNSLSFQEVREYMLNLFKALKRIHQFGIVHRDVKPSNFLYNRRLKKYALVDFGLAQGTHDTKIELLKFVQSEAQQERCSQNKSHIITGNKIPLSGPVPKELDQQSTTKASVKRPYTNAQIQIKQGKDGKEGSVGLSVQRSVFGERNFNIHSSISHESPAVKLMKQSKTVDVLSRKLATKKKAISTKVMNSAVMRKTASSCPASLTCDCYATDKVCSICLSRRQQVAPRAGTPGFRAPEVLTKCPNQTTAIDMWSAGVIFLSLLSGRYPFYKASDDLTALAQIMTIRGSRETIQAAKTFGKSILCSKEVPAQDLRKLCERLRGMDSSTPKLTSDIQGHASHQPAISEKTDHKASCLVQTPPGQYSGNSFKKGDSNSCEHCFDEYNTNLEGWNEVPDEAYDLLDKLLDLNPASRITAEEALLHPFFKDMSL
T1 sequence (Q9UBU7 whole entry partner): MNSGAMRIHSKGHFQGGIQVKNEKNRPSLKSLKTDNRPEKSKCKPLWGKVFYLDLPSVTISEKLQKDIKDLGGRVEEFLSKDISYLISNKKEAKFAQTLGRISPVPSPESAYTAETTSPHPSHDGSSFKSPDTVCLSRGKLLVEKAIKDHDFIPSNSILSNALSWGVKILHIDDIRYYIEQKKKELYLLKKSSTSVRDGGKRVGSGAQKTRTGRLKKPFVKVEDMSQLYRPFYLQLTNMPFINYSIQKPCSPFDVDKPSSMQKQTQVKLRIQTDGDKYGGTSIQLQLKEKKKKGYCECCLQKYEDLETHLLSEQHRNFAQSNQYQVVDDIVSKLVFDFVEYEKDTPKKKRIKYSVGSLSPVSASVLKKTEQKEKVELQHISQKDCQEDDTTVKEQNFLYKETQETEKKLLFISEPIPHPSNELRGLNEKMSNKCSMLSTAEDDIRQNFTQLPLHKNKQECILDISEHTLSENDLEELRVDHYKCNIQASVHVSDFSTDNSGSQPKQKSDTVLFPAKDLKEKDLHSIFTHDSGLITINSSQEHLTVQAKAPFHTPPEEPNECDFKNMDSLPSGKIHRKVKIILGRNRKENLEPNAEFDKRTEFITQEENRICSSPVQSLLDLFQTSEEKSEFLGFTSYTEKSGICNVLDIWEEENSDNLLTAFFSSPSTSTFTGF

A word on the IC50: it is the point on the concentration scale where inhibition reaches its midpoint. For the molecule `COC[C@@H]1CN2CC(F)(F)Cc3c(-c4cn[nH]c4)sc(c32)C(=O)N1` [Compound 115, (S)-4,4-difluoro-7-(methoxymethyl)-2-(1H-pyrazol-4-yl)-4,5,7,8-tetrahydro-3H-1-thia-5a,8-diazabenzo[cd]azulen-9(6H)-one], the figures for the IC50 in test [1] and in test [2] were less than 0.001 µM and 0.218 µM, respectively.
Consider `O=C1NC[C@@H](COCc2ccccc2)N2CCOc3c(-c4cn[nH]c4)sc1c32` [Compound 38, (S)-6-((benzyloxy)methyl)-2-(1H-pyrazol-4-yl)-4,5,7,8-tetrahydro-3-oxa-1-thia-5a,8-diazabenzo[cd]azulen-9(6H)-one], for which the IC50 in test [1] was 0.001 to 0.01 µM; in test [2], 1.81 µM.
On to `COC[C@H]1CN2C[C@H](F)Cc3c(-c4cn[nH]c4)sc(c32)C(=O)N1` (single isomer, unassigned) [Compound 126], for which the half-inhibitory concentration (IC50) in test [1] was less than 0.001 µM; in test [2], 0.902 µM.
For `O=C1NC[C@H](CO)N2CCOc3c(-c4ccncc4)sc1c32` [Compound 50, (R)-6-(hydroxymethyl)-2-(pyridin-4-yl)-4,5,7,8-tetrahydro-3-oxa-1-thia-5a,8-diazabenzo[cd]azulen-9(6H)-one] the same measures were less than 0.001 µM and 0.268 µM.
For `O=C1N[C@@H](CO)CN2CCCc3c(-c4cn[nH]c4)sc1c32` [Compound 32, (R)-7-(hydroxymethyl)-2-(1H-pyrazol-4-yl)-4,5,7,8-tetrahydro-3H-1-thia-5a,8-diazabenzo[cd]azulen-9(6H)-one] the same measures were less than 0.001 µM and 0.812 µM.
For `O=C1N[C@@H](Cn2cccn2)CN2CC(F)(F)Cc3c(-c4cn[nH]c4)sc1c32` [Compound 102, (R)-7-((1H-pyrazol-1-yl)methyl)-4,4-difluoro-2-(1H-pyrazol-4-yl)-4,5,7,8-tetrahydro-3H-1-thia-5a,8-diazabenzo[cd]azulen-9(6H)-one], the IC50 in test [1] was less than 0.001 µM; in test [2] it was 0.066 µM.
In the case of `C[C@H]1CN2CCCc3c(-c4cn[nH]c4)sc(c32)C(=O)N1` [Compound 30, (S)-7-methyl-2-(1H-pyrazol-4-yl)-4,5,7,8-tetrahydro-3H-1-thia-5a,8-diazabenzo[cd]azulen-9(6H)-one], the IC50 in test [1] was less than 0.001 µM; in test [2], 0.041 µM.
For `O=C1NC[C@H](CO)N2CCOc3c(-c4cn[nH]c4)sc1c32` [Compound 33, (R)-6-(hydroxymethyl)-2-(1H-pyrazol-4-yl)-4,5,7,8-tetrahydro-3-oxa-1-thia-5a,8-diazabenzo[cd]azulen-9(6H)-one] the same measures were less than 0.001 µM and 0.08 µM.
For `O=C1N[C@H](C2CCC2)CN2CCOc3c(-c4cn[nH]c4)sc1c32` [Compound 19, (R)-7-cyclobutyl-2-(1H-pyrazol-4-yl)-4,5,7,8-tetrahydro-3-oxa-1-thia-5a,8-diazabenzo[cd]azulen-9(6H)-one], the IC50 in test [1] is less than 0.001 µM; in test [2], 0.057 µM.
Consider `Cc1cnn(C[C@H]2CN3CCOc4c(-c5cn[nH]c5)sc(c43)C(=O)N2)c1` [Compound 41, (R)-7-((4-methyl-1H-pyrazol-1-yl)methyl)-2-(1H-pyrazol-4-yl)-4,5,7,8-tetrahydro-3-oxa-1-thia-5a,8-diazabenzo[cd]azulen-9(6H)-one], for which the IC50 in test [1] is less than 0.001 µM; in test [2] it was 0.087 µM.
In the case of `COC[C@@H]1CN2CCOc3c(-c4cn[nH]c4)sc(c32)C(=O)N1` [Compound 54, (S)-7-(methoxymethyl)-2-(1H-pyrazol-4-yl)-4,5,7,8-tetrahydro-3-oxa-1-thia-5a,8-diazabenzo[cd]azulen-9(6H)-one], the figures for the IC50 in test [1] and in test [2] were less than 0.001 µM and 0.11 µM, respectively.
